# Experimental data reported in patent publication US11801000B2, “Hormone electrochemical biosensor” (Trustees of Boston University, priority 2021, dated 2023).
# Entries after “also recorded” stand apart in the source; their conditions may differ.
# B1: 3-ketosteroid-Δ1-dehydrogenase enzyme 1 (protein)
# chain: MDWAEEYDVLVAGSGAGGMAGTYTAAREGLSVCLVEAGDKFGGTTAYSGGGGAWFPANPVLLRAGTDDTIEDALEYYRAVVGDRTPADLQETYVRGGAGLVAYLEEDDHFSFESYPWPDYFGDAPKARRDGQRHIIPTPLPVPSAPELREVVRGPLDNDRLGTPQPDDLFIGGRALVARFLTALATYPHATLVRETALAELVVEDGVVVGAIVETDGVRRAIRARRGVLLAAGGFEANDELRQKYGVPGVARDTMGPPTNVGAAHQAAIAVGADTDLMGEAWWSPGLTHPDGRSAFALWFTGGIFVDGAGRRFVNESAPYDRLGRAVIDHLTEGGVTPRYWMVYDHKEGSIPPVRATNVSMVDEEQYVAAGLWHTADTLPELAALIGVPADALVATVARFNELVADGYDADFGRGGEAYDRFFSGGEPPLVSIDEGPFHAAAFGISDLGTKGGLRTDTSARVLTADGTPIGGLYAAGNTMAAPSGTTYPGGGNPIGTSMLFSHLAVRHMGTEDARGSHHHHHH
# modifications: 6xHis tag
# Experiments:
# [1] = test system: KSDH1; assay: Amplex UltraRed assay (H2O2 detection by fluorescence); assay type: biochemical, Pimelobacter simplex; settings: 500 μM final PRG, CRT; 4.56 μM KSDH1; normalized (analytes without enzyme subtracted)
# Experimental: FIGS. 6A-6B are schematics and graphs detailing the Amplex® UltraRed Reagent assay in which fluorescence is analyte limited, not enzyme limited. FIG. 6A is a schematic showing the Amplex® UltraRed mechanism for oxidase enzymes. Hormone is oxidized into product and H2O2 with presence of […] and O2. Horseradish peroxidase (HRP) then oxidizes Amplex® UltraRed in the presence of H2O2 into resorufin, which is fluorescent.
# In Vitro Enzyme Characterization: Amplex® UltraRed assays were performed per instruction of the manufacturer (Thermo Fisher Scientific, Cambridge, Mass.). Final concentrations of Amplex® UltraRed, 500 uM, and HRP, 1 U/mL, in a total volume of 20 μL were used. Hormone and KSDH1 and KSDH2 concentrations varied with experiment. All measurements of fluorescence were done in a 384 well flat bottom black polystyrene microplate (Corning Inc.™, Corning, N.Y.) and read in an Infinite M200 Pro™ (TECAN Group Ltd.™, Medford, Mass.) spectrophotometer at room temperature with the excitation set to 490 nm and emission at 585 nm. Readings were done over 1 hour with each well read every 30 seconds.
# (§1) The FAD-binding (KSDH1) enzyme was used to develop and optimize a hormone electrochemical biosensor. […] KSDH1 was also assessed using a DCPIP Assay to test whether it is a dehydrogenase.
# [2] = test system: KSDH1; assay: 2,6-Dichlorophenolindophenol (DCPIP) dehydrogenase functional assay; assay type: biochemical, Pimelobacter simplex; settings: for Binding affinity, kinetics derived from velocity by hormone concentration experiment: FIG. 9C-9D
# Experimental: A 2,6-Dichlorophenolindophenol functional assay was used to test whether KSDH1 is a dehydrogenase (FIG. 9A).
# as §1
# [3] = Cyclic voltammetry, electroactivity on DS110 carbon SPE; assay type: physicochemical
# [4] = test system: Pimelobacter simplex; assay: RNA-Seq of Pimelobacter simplex in the presence of hormone; assay type: cell-based; settings: P. simplex grown in the presence of progesterone
# Experimental: FIG. 3 is a series of graphs showing that RNA-Seq identified the steroid degrading genome cluster in Pimelobacter simplex.
# Strain RNA Extraction: Cells were grown in 5 mL M18 at a starting OD600 of 0.005 with 21.6 μM hormone in 14 mL polypropylene round-bottom tubes (Corning Inc.™, Corning, N.Y.) in singlet. The cells were incubated at 30° C. with continuous orbital shaking at 150 rpm until the end of lag-phase (3 hours) and mid-log phase (7.5 hours) from the start of inoculation. Controls were grown in the same conditions without hormone. […] RNA samples were subsequently quantified using Qubit RNA HS Assay Kit™ (Thermo Fisher Scientific Inc.™, Cambridge, Mass.) and analyzed using a RNA 6000 Pico Kit™ (Agilent Technologies Inc.™, Santa Clara, Calif.) in a 2100 Bioanalyzer™ (Agilent Technologies Inc.™, Santa Clara, Calif.). […]
# RNA-Seq Library Preparation: After RNA samples have been quantified and analyzed they were DNase treated using TURBO™ DNase 2 U/μL (Thermo Fisher Scientific Inc™ Cambridge, Mass.) and cleaned using Agencourt RNAClean™ XP SPRI beads (Beckman Coulter, Inc.™, Brea, Calif.). […] Whole transcriptome RNA sequencing was performed by a NextSeq 500™ (Illumina Inc.™, San Diego, Calif.) at high output (400 M reads) with 75 bp paired end sequencing read length. The data was then analyzed in-house through a proprietary lab computational pipeline.
# [5] = KSDH1 stability (storage, immobilizing polymer) on biosensor; assay type: physicochemical
# Source text: FIG. 27. KSDH1 precipitation in the presence of chitosan, an immobilizing polymer, is evident.
# FIG. 30A-B. Glutaraldehyde immobilization decreases signal (FIG. 30A).
# [6] = DS110, DMSO as solvent (FIG. 16A)
# [7] = DS110, EtOH as solvent (FIG. 16B)
Molecule,KSDH1 response (fluorescence signal) to analyte [1],"Binding affinity, kinetics derived from velocity by hormone concentration experiment [2]","Electroactivity by cyclic voltammetry [3, 6]","Electroactivity by cyclic voltammetry [3, 7]","KSDH1 sensitivity in sterol screen (DCPIP reduction, absorbance at OD600 nm) ([2]; sterol screen, FIG. 9B)",Expression of sterol responsive enzymes KSDH1 and KSDH2 (SRGI cluster) [4],"Behaviour in the presence of chitosan, an immobilizing polymer ([5]; FIG. 27)","Current output after storage ([5]; storage at 4 C for 1 week, two electrode configuration, DS110, +0.4V)"
"C[C@]12CCC(=O)C=C1CC[C@@H]1[C@@H]2[C@@H](O)C[C@@]2(C)[C@H]1CC[C@]2(O)C(=O)CO [Cortisol, hydrocortisone]",increase of fluorescence; also recorded: responsive,strong,not electroactive,not electroactive,,,,
"CC(=O)[C@H]1CC[C@H]2[C@@H]3CCC4=CC(=O)CC[C@]4(C)[C@H]3CC[C@]12C [Progesterone, progesterone]",increase of fluorescence; also recorded: responsive,strong,not electroactive,not electroactive,DCPIP was reduced; also recorded: high sensitivity,highly expressed,,
B1,,,,,,,precipitation,no change in current output
